The text below walks through data of patent US20260258003A1, “SLACK-ACTIVATING COMPOUNDS AND THEIR MEDICAL USE” (Johann Wolfgang Goethe-Universität Frankfurt am Main, priority 2023, published 2026).

SMILES strings stand for the structures.

One data set relates to 44 targets. The data set can be described thus: SafetyScreen44 panel (Eurofins), whole panel. It counts as binding, mostly human. The note with it: 10 μM, out of 44 targets. The protocol:
(§1) Compound enzyme inhibition effect was calculated as a % inhibition of control enzyme activity. […] Measurements were performed in duplicate.

The target in data set [1] is T1, alpha-1A adrenergic receptor (α1A) (Homo sapiens, UniProt P35348).
T1 construct: Eurofins SafetyScreen44
Kind of data set: SafetyScreen44 binding. The settings on record: substantial = higher than 50%. The protocol:
as §1

In data set [2] the target is T2, dopamine receptor D1 (D1) (Homo sapiens, UniProt P21728).
T2 construct: Eurofins SafetyScreen44
The data set can be described thus: SafetyScreen44 binding. The note with it: 10 μM; substantial = higher than 50%. How it is done: as §1

Data set [3] concerns the target T3, histamine H1 receptor (H1) (Homo sapiens, UniProt P35367).
T3 construct: Eurofins SafetyScreen44
Kind of data set: SafetyScreen44 binding. The note with it: 10 μM; substantial = higher than 50%. The protocol:
as §1

Data set [4] has as its target T4, norepinephrine transporter (NET) (Homo sapiens, UniProt P23975).
T4 construct: Eurofins SafetyScreen44
Kind of data set: SafetyScreen44 binding. The note with it: substantial = higher than 50%.

Data set [5] has as its target T5, serotonin transporter (SET) (Homo sapiens, UniProt P31645).
T5 construct: Eurofins SafetyScreen44
The data set can be described thus: SafetyScreen44 binding. The note with it: substantial = higher than 50%.

Data set [6] deals with motor function of mice. Kind of data set: Accelerating rotarod test (motor function). It is filed as in vivo. Further details: motor function in the accelerating rotarod test: dose or concentration left out as unconfirmed. The settings on record: for motor function in the accelerating rotarod test: 15 min after administration. The protocol:
(§2) Further studies were conducted to assess the in vivo efficacy of Compound 6 and Compound 10 in mice. In detail, experiments were performed in 8 to 16 weeks old C57BL/6N mice (Charles River, Sulzfeld, Germany) and animals with a genetic deletion of Slack (Slack^−/− mice^27) of either sex. Animals were housed on a 12 h light/dark cycle with access to food and water ad libitum. All experiments adhered to the guidelines of the International Association for the Study of Pain and to the ARRIVE (Animal Research: Reporting on In Vivo Experiments) guidelines, and were approved by and conducted in accordance with the regulations of the local Animal Welfare authorities (Regierungspräsidium Darmstadt, Germany). All behavioral studies were conducted during the light cycle of the day at room temperature (20-24° C.) by an observer blinded for the treatment of the animals and/or their genotype.
(§3) Accelerating rotarod and vertical pole test were performed as follows: Mice were placed on a rotarod treadmill (Ugo Basile, Italy) with increasing speed (4-40 rpm over 300 s), and were trained for 4-5 consecutive days. Only mice reaching the 300 seconds without falling off were included in the experiment. On the testing day, compounds were i.p. administered in a vehicle composed of 0.9% saline (Sigma-Aldrich) containing 10% 2-hydroxypropyl-β-cyclodextrine (ITW Reagents) and after 15 min the latency to fall off the accelerating rotarod was measured. Immediately thereafter, mice were placed head-upward on the top of a vertical pole with a rough surface (diameter 1 cm, height 40 cm) and the time until animals reached the ground was recorded (cut-off time 20 s). Means out of three trials for each time point were calculated for further analysis.
(In general: In the rotarod test animals must keep their balance on a rotating rod.)

Data set [7] concerns motor function of mice. The data set can be described thus: Vertical pole test (motor function). It is filed as in vivo. The settings on record: for motor function in the vertical pole test: 3-30 mg i.p., after rotarod test. How it is done:
as §2, §3

T3 sequence (P35367 whole entry): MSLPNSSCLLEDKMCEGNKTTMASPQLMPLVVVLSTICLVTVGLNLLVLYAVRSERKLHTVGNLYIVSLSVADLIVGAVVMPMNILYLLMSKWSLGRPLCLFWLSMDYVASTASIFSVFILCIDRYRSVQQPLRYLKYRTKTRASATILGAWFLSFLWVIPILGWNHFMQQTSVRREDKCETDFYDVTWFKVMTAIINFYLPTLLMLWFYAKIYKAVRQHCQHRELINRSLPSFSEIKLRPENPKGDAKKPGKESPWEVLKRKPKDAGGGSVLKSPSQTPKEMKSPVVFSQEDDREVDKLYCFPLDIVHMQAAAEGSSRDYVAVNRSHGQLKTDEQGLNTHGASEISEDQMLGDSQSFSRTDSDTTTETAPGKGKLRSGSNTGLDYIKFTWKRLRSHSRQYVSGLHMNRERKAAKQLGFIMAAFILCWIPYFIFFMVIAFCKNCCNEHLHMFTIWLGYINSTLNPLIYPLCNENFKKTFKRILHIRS
T5 sequence (P31645 whole entry): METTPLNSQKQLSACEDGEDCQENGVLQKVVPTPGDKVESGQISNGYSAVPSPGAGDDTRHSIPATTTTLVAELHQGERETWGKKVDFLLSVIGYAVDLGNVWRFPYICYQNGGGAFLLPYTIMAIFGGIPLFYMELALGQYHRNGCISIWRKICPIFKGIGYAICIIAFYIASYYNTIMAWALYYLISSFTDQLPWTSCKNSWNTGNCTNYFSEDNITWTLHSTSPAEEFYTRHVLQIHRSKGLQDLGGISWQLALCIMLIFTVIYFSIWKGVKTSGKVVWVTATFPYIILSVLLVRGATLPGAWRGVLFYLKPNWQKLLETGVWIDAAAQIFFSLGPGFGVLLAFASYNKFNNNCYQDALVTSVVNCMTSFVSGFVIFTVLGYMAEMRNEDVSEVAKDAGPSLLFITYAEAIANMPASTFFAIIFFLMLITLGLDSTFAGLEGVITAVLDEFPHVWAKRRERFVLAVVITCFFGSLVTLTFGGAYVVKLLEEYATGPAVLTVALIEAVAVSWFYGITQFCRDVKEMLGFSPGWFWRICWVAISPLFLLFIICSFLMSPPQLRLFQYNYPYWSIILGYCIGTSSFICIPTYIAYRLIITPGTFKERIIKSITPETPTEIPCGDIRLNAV
T2 sequence (P21728 whole entry): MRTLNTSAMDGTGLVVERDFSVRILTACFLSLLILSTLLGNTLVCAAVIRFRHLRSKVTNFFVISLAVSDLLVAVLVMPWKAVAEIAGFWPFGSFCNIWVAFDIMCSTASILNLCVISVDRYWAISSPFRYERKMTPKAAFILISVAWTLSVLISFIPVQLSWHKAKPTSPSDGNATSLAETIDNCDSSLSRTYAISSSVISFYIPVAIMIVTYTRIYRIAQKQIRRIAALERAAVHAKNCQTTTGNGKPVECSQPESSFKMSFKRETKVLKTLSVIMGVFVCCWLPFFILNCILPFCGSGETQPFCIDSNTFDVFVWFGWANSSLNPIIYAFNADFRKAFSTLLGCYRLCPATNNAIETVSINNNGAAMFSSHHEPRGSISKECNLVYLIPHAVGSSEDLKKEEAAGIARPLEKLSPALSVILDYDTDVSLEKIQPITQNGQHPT
T4 sequence (P23975 whole entry): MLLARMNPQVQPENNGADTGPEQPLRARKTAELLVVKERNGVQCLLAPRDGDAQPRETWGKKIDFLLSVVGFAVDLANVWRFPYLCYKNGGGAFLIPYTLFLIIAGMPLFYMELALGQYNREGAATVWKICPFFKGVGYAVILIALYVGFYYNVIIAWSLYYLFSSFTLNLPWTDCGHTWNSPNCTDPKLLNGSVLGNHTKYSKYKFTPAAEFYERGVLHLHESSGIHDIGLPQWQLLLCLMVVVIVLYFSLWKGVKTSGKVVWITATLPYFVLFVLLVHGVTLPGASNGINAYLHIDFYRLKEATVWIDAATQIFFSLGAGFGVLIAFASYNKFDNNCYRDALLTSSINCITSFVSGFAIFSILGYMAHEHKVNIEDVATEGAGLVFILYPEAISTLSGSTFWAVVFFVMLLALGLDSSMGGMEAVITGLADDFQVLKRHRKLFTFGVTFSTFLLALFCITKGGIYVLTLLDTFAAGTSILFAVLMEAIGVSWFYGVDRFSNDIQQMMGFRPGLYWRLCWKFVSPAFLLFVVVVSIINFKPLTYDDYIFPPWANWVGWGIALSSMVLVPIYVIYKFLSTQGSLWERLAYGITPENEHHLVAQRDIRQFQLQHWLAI
T1 sequence (P35348 whole entry): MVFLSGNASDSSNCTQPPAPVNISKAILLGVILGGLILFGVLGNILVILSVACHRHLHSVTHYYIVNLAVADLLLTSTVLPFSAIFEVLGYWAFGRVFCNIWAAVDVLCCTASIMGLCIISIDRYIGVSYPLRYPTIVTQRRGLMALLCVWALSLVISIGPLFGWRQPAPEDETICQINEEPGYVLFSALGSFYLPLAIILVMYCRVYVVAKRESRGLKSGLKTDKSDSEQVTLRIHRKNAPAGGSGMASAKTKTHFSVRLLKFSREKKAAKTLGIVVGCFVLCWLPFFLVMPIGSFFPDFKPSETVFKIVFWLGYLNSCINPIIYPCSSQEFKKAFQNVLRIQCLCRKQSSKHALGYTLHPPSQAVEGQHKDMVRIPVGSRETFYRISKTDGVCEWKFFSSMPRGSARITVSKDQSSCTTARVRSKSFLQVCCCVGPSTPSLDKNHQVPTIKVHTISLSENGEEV

As to `O=C(O)COCCN1CCN(C2=Nc3ccccc3Oc3ccc(Cl)cc32)CC1` [Compound 6, 2-(2-(4-(2-Chlorodibenzo[b,f][1,4]oxazepin-11-yl)piperazin-1-yl)ethoxy) acetic acid], the “number of targets with substantial binding inhibition (higher than 50%)” value with 44 targets is 8. Further, the “binding inhibition, α1A” value in data set [1] (10 μM) is “substantial binding”. The “binding inhibition, D1” value in data set [2] is “substantial binding”. The “binding inhibition, H1” value in data set [3] is “substantial binding”. Besides, in data set [4] (10 μM), the “binding inhibition, NET” value is given as “substantial binding”. Besides, in data set [5] (10 μM), the “binding inhibition, SET” value was “substantial binding”. Further, the “motor function in the accelerating rotarod test” value in the data set on motor function of mice [6] is listed as “did neither impair the motor function”. Further, the “motor function in the vertical pole test” value with motor function of mice [7] is on record as “did neither impair the motor function”.
For `O=c1nc(CN2CCN(C3=Nc4ccccc4Oc4ccc(Cl)cc43)CC2)[nH][nH]1` [Compound 10, 5-((4-(2-Chlorodibenzo[b,f][1,4]oxazepin-11-yl)piperazin-1-yl)methyl)-1,2-dihydro-3H-1,2,4-triazol-3-one], the “number of targets with substantial binding inhibition (higher than 50%)” value in the data set with 44 targets was 5. Further, in data set [2], the “binding inhibition, D1” value is “substantial binding inhibition”. Besides, in data set [3], the “binding inhibition, H1” value is reported as “substantial binding inhibition”. Moreover, the “motor function in the accelerating rotarod test” value with motor function of mice [6] is recorded as “did neither impair the motor function”. In addition, the “motor function in the vertical pole test” value with motor function of mice [7] was “did neither impair the motor function”.
With `CN1CCN(C2=Nc3ccccc3Oc3ccc(Cl)cc32)CC1` [Loxapine, 2-chloro-11-(4-methylpiperazin-1-yl)dibenzo[b,f][1,4]oxazepine, reference compound], the “number of targets with substantial binding inhibition (higher than 50%)” value in the data set on 44 targets was determined as 17. Moreover, the inhibition at 10 µM in data set [1], in data set [4] and in data set [5] was over 50% throughout. Also, the “ability to perform in the accelerating rotarod test” value in the data set on motor function of mice [6] (dose ≥0.39 mg/kg i.p.) was “significantly reduced the ability of the mice to perform”. The “ability to perform in the vertical pole test” value with motor function of mice [7] (dose ≥0.39 mg/kg i.p.) is reported as “significantly reduced the ability of the mice to perform”.
